From patent US20060057669A1, “Inactive transcription factor tif-ia and uses thereof” (priority 2002, published 2006)

Assays:
TIF-IA = test: In vitro transcription assay of TIF-IA purified from treated HEK293T cells, in nuclear extracts from rapamycin-treated cells; assay type: biochemical; conditions: 1 hr; okadaic acid 1 μM or calyculin A 50 nM with rapamycin 20 nM
Experimental: Nuclear extracts from rapamycin-treated cells were supplemented with 30 and 90 ng of TIF-IA that was immunopurified from HEK293T cells co-expressing FLAG-tagged TIF-IA and either GST/myc-tagged wild-type S6K1 (lanes 2-5) or S6K1E389ANAC (lanes 6-9).
B) Transcriptional activity of TIF-IA mutants in vitro. TIF-IA was purified from cells that were mock-treated (lanes 2, 3), or treated for 1 hr with either okadaic acid (1 μM), rapamycin (20 nM), calyculin A (50 nM), or both okadaic acid or calyculin A and rapamycin as indicated. 30 ng (even numbers) and 90 ng (odd numbers except 1) of TIF-IA were assayed for their capability to restore transcription of nuclear extracts from rapamycin-treated cells.
If S6K1 or S6K1-activated kinases were the only pathways that target TIF-IA and mediate mTOR-dependent regulation of Pol I transcription, then rapamycin should not inactivate TIF-IA if a rapamycin-resistant S6K1 mutant was co-expressed. This, however, was not the case.
Two mechanisms could be responsible for the decreased phosphorylation of S44 after rapamycin treatment, e.g., inhibition of the respective kinase or activation of a counteracting phosphatase. […] If PP2A dephosphorylates and thus inactivates TIF-IA, inhibition of PP2A should protect TIF-IA from inactivation by rapamycin. […]

Pol I transcription [1] = test: In vitro transcription: TIF-IA mutants restoring rDNA transcription of nuclear extract from density-arrested FM3A cells; assay type: biochemical, murine; conditions: S633/S649 mutants; 20 and 40 ng
Experimental: (A) Transcriptional activity of TIF-IA mutants in vitro. FLAG-tagged wild-type TIF-IA and the indicated single or double point mutants were overexpressed in HEK293T cells, immunopurified, and 20 and 40 ng were assayed for their capability to restore rDNA transcriptional activity of nuclear extract from density-arrested FM3A cells. The amount and purity of TIF-IA were estimated on silver-stained SDS-polyacrylamide gels and Western blots (data not shown).
(A) Transcriptional activity of TIF-IAS199A and TIF-IAS199D in vitro. FLAG-tagged wild-type TIF-IA and the indicated mutants were immunopurified from HEK293T cells, and 30 and 60 ng were assayed for their capability to restore transcriptional activity of nuclear extract from density-arrested FM3A cells. The amount and purity of TIF-IA were estimated on silver-stained SDS-polyacrylamide gels (data not shown).
(B) Transcriptional activity of TIF-IAS44A in vitro. FLAG-tagged wild-type TIF-IA and the indicated mutant were assayed for their transcriptional activity in vitro.
(§1) Nuclear extracts were prepared from exponentially growing (8×10^5 cells/ml), density-arrested or PD98059-treated (CN Bioscience, Bad Soden, Germany) 40 μM, 0.5 hr) or rapamycin-treated FM3A cells (ATCC, Manassas, USA). 25 μl assays contained 50 ng of template DNA (pMr600/EcoRI), 30 μg nuclear extract proteins and 12 mM Hepes-KOH, [pH8.0], 0.1 mM EDTA, 5 mM MgCl2, 80 mM KCl, 10 mM creatine phosphate, 12% (v/v) glycerol, 0.66 mM each of ATP, GTP and CTP, 0.01 mM UTP and 0.5 μCi [α-^32P]UTP (5000 Ci/mmol). After incubation for 60 min at 30° C., RNA was extracted and analyzed on non-denaturing 5% polyacrylamide gels
TIF-IA was immunopurified from untransfected NIH3T3 cells or from HEK293T cells overexpressing FLAG-tagged TIF-IA. 4×10^6 cells were lysed in 0.8 ml IP buffer (20 mM Tris-HCl [pH 7.4], 200 mM NaCl, 2 mM EDTA, 2 mM EGTA, 1% Triton X-100, 0.5 mM PMSF, 1 μg/ml aprotinin, 5 μg/ml leupeptin and 1 μg/ml pepstatin A), centrifuged at 10,000 g for 30 min, and the supernatants were incubated for 4 hr at 4° C. with either 10 μg anti-TIF-IA antibodies bound to 20 μl protein G-agarose or with anti-FLAG (M2) agarose (Sigma-Aldrich Corp., Missouri, USA). The immunocomplexes were successively washed with buffer AM (20 mM Tris-HCl [pH 8.0], 5 mM MgCl2, 0.1 mM EDTA, 20% glycerol) containing 400 and 100 mM KCl, respectively. The amount and purity of TIF-IA was estimated on silver-stained polyacrylamide gels and similar amounts of bead-bound TIF-IA were used in in vitro transcription assays. GST fusion proteins were expressed in E. coli BL21(DE3) and purified on Glutathione-Sepharose 4B according to the manufacturer's instructions.
To assess the functional relevance of S633 and S649 phosphorylation on transcriptional activity, the respective S→A and S→D single or double point mutants were purified from transfected cells and assayed for their capability to rescue transcription of extracts from density-arrested cells. […] Thus, phosphorylation of TIF-IA at S649 and S633 is required for transcriptional activity.
Phosphorylation of peptide a should inhibit TIF-IA activity, while phosphorylation of peptide b, e.g. S44, should augment TIF-IA activity.

Pol I transcription [2] = test: In vitro transcription: TIF-IA mutants added to nuclear extract from exponentially growing FM3A cells; assay type: biochemical, murine; conditions: 20 and 40 ng added to 15 ug nuclear extract
Experimental: 20 and 40 ng of the indicated TIF-IA mutants were added to 15 ug nuclear extract from exponentially growing FM3A cells and rDNA transcription was assayed.
as §1
Given that phosphorylation of TIF-IA at serine 649 is essential for transcription, excess of TIF-IAS649A should impair Pol I transcription. To test this, we examined the effect of exogenous wild-type and mutant TIF-IA on transcriptional activity of extracts from exponentially growing cells.

HEK293T cells [3] = test: Cell enumeration by dual-parameter flow cytometry; assay type: cell-based; conditions: 60 hr after transfection
Experimental: (C) Cell enumeration by flow cytometry. HEK293T cells expressing wild-type TIF-IA or the S649 mutants were harvested 60 hours after transfection, stained with FITC-conjugated anti-FLAG M2 antibodies and analyzed by dual-parameter flow cytometry in a FACScan™ flow cytometer in the presence of CaliBRITE™ calibration beads. 60,000 events were recorded from each sample. The number of cells expressing FLAG-TIF-IA was calculated from the ratio between FITC-positive cells and counted beads.
HEK293T cells were harvested 60 hr after transfection with pcDNA-FLAG-TIF-IA, fixed with 2% paraformaldehyde and permeabilized with 0.1% Triton X-100 in PBS. […] Cell were analyzed with a FACSCan™ flow cytometer in the presence of CaliBRITE™ beads (Becton Dickinson, San Jose, USA). The number of cells expressing FLAG-TIF-IA was calculated from the ratio between FITC-positive cells and counted beads.
Given the functional significance of ERK/RSK-directed TIF-IA phosphorylation on Pol I transcription, mutations that enhance or abrogate TIF-IA activity may have a positive or negative effect on cell growth. […] The expression of TIF-IA was estimated on Western blots and the cellular growth rate was measured by calcein-AM staining. […] Thus, cellular calcein fluorescence correlates with the amount of viable cells. […]

HEK293T cells [4] = test: Quantitative fluorimetric viability assay with calcein-AM; assay type: cell-based; conditions: 24, 36, 48 and 60 hr after transfection; 2 μM calcein-AM
Experimental: (B) Quantitative fluorimetric viability assay with calcein-AM. HEK293T cells were transfected with TIF-IA or the indicated point mutants. […] Viable cells were measured 24, 36, 48 and 60 hr after transfection by incubation with […] calcein-AM. The gradual increase in fluorescence intensity was recorded with a fluorescence multi-well plate reader for 20 min with an excitation wavelength of 485 nm and an emission wavelength of 530 nm. The proliferation rate of mock-transfected cells and cells overexpressing TIF-IA is shown at the left. Plots show the accumulation of calcein fluorescence (arbitrary units) against time. Growth rates calculated from linear regression curves are shown at the right. Values are presented as the mean±SD from three independent experiments performed in duplicates.
Conversion of calcein-AM (calcein acetoxymethyl ester, (CN Bioscience GmbH, Bad Soden, Germany) to calcein was used to measure cell proliferation. 12 hr after transfection, HEK293T cells were seeded to 96-well micro-plates at 1×10^4 cells/well. After 24, 36, 48 and 60 hr, cells were washed with PBS, incubated with 2 μM calcein-AM, and the gradual increase in fluorescence intensity within the cells was recorded by a fluorescence multi-well plate reader (CytoFluor Series 4000/TC, PerSeptive Biosystems, (Applied Biosystems, Forster City, USA) for 20 min in 1 min intervals. Excitation wavelength used for measurements of fluorescence was 485 nm with a bandwidth of 20 nm; emission wavelength was 530 nm with a bandwidth of 25 nm. Under the experimental conditions used, there is a direct correlation between the accumulation ratio of intracellular calcein fluorescence and the number of viable cells. The data from three independent experiments were analyzed by Sigmaplot and expressed as the mean±standard deviation. For statistical analysis, student's t test was used. Differences with a P<0.01 were considered statistically significant.
Given the functional significance of ERK/RSK-directed TIF-IA phosphorylation on Pol I transcription, mutations that enhance or abrogate TIF-IA activity may have a positive or negative effect on cell growth. To test this, HEK293T cells were transfected with cDNAs encoding wild-type or mutant TIF-IA which harbor single or double point mutations at S649 and S633. The expression of TIF-IA was estimated on Western blots and the cellular growth rate was measured by calcein-AM staining. Calcein-AM is a non-fluorescent, hydrophobic compound that is rapidly hydrolyzed by intracellular esterases releasing hydrophilic fluorescent calcein. Thus, cellular calcein fluorescence correlates with the amount of viable cells. […] Cells expressing FLAG-tagged wild-type or mutant TIF-IA were stained with FITC-conjugated anti-FLAG antibodies, identified by FACS and cell numbers were calculated by measuring the ratio of stained cells versus an internal standard. […] Conversely, the number of cells expressing TIF-IAS649A was 33% lower than the control. […] Taken together, the results reveal a striking correlation between phosphorylation of TIF-IA at serine 649, cellular rRNA synthetic activity and cell cycle progression.

HEK293T cells [5] = test: Images of transfected HEK293T cells; assay type: cell-based; conditions: images taken after 48 h
Experimental: HEK293T cells were transfected with TIF-IA or TIFIAS649A, respectively, and images were taken after 48 h.

HEK293T cells [6] = test: Trypan blue staining; assay type: cell-based; conditions: data not shown
HEK293T cells [7] = test: Relative DNA content of sorted cells by FACS analysis; assay type: cell-based
Experimental: HEK293T cells were harvested 60 hr after transfection with pcDNA-FLAG-TIF-IA, fixed with 2% paraformaldehyde and permeabilized with 0.1% Triton X-100 in PBS. Transfected cells were labeled by incubation for 1 hr with 2 μg/ml FITC-conjugated anti-M2 antibodies (Sigma) and subsequently stained with […] propidium iodide (Sigma). Cell were analyzed with a FACSCan™ flow cytometer in the presence of CaliBRITE™ beads (Becton Dickinson, San Jose, USA). The number of cells expressing FLAG-TIF-IA was calculated from the ratio between FITC-positive cells and counted beads.
Given the functional significance of ERK/RSK-directed TIF-IA phosphorylation on Pol I transcription, mutations that enhance or abrogate TIF-IA activity may have a positive or negative effect on cell growth. To test this, HEK293T cells were transfected with cDNAs encoding wild-type or mutant TIF-IA which harbor single or double point mutations at S649 and S633. The expression of TIF-IA was estimated on Western blots and the cellular growth rate was measured by calcein-AM staining. […] Thus, cellular calcein fluorescence correlates with the amount of viable cells. […] Cells expressing FLAG-tagged wild-type or mutant TIF-IA were stained with FITC-conjugated anti-FLAG antibodies, identified by FACS and cell numbers were calculated by measuring the ratio of stained cells versus an internal standard. […]

COC[C@@H]([C@H](O)[C@H](O)C(=O)NCC[C@H](C)c1nc(/C=C/C[C@@H]2O[C@]3(C[C@@H](O)[C@@H]2C)O[C@H]([C@H](C[C@H](O)[C@H](C)[C@H](O)[C@H](C)/C=C(C)/C(C)=C/C=C/C(C)=C\C#N)OC)[C@H](OP(=O)(O)O)C3(C)C)co1)N(C)C [calyculin A]
effect on inactivation of TIF-IA by rapamycin (TIF-IA): prevented inactivation of TIF-IA by rapamycin

C=C1[C@@H](O)[C@@H]2O[C@]3(CC[C@H](/C=C/[C@@H](C)[C@@H]4CC(C)=C[C@@]5(O[C@H](C[C@@](C)(O)C(=O)O)CC[C@H]5O)O4)O3)CC[C@H]2O[C@@H]1[C@@H](O)C[C@H](C)[C@H]1O[C@@]2(CCCCO2)CC[C@H]1C [okadaic acid]
effect on inactivation of TIF-IA by rapamycin (TIF-IA): prevented inactivation of TIF-IA by rapamycin

TIF-IAS649A: TIF-IA point mutant, serine residue at position 649 replaced by an alanine residue
capability to rescue transcription of extracts from density-arrested cells (Pol I transcription [1]): abolished TIF-IA activity
effect on transcriptional activity of extracts from exponentially growing cells (Pol I transcription [2]): acts as a dominant-negative inhibitor of Pol I transcription
effect on transcriptional activity of extracts from exponentially growing cells (Pol I transcription [2]; listed as S649A): suppressed transcription well below the basal level
number of cells lower than the control (HEK293T cells [3]): 33%
cellular growth rate by calcein-AM staining (HEK293T cells [4]): impaired cell growth
cell growth on images (HEK293T cells [5]): retards cell growth
cell viability as cause of growth inhibition (HEK293T cells [6]): not due to decreased cell viability
decrease of G2/M-phase cells (HEK293T cells [7]): 25%
